Some results are limits rather than exact numbers.

The term Ki denotes the dissociation constant of the complex between target and ligand, obtained from inhibition or displacement. A low value points to tighter binding.

This assay concerns the target Tyrosine-protein kinase SYK (Homo sapiens) (UniProt P43405). Briefly: Inhibition of SYK.

On to `CC(C)C[C@H]1CN(c2ccc(C(F)(F)F)c(C(=O)c3cccnc3N)n2)CCN1`, for which the Ki was over 4 µM.

The values are drawn from BindingDB's records for doi:10.1016/j.bmcl.2012.05.114 (Vertex Pharmaceuticals, 2012).
